According to article PMC2964311, “The Human Host Defense Peptide LL-37 Interacts with Neisseria meningitidis Capsular Polysaccharides and Inhibits Inflammatory Mediators Release” (PLoS ONE, 2010):
≈ marks a conversion by molar mass, not a printed value.

Columns and labels:
[1] = test system: THP-1 cells; experiment: IL-6 release from THP-1 cells induced with meningococcal CPS pre-incubated with peptide (ELISA); assay type: cell-based, human; settings: THP-1 cells induced overnight with CPS-lpxA pre-incubated with 2 µg/ml peptide, 30 min, 37°C; Figure 1B
Method: Human THP-1 (macrophage-like cells) and murine RAW 264.7 (TLR4-sufficient), 23ScCr (TLR4-deficient) and HEK-TLR2/6/CD14 stably transfected cell lines were stimulated with meningococcal CPS polymers with or without pre-incubation with LL-37 and its analogs (Table 1). CPS polymers were purified from the LPS-deficient serogroup B Neisseria meningitidis lpxA mutant as well as other meningococcal serogroups A, B, C, W135 and Y. Purified CPS samples were freshly dissolved in pyrogen-free sterile H2O at 1 mg/ml stock concentration and vortexed for 2 min. Working CPS concentrations (ranging from 100 µg/ml to 50 ng/ml) were made in duplicate wells using sterile PBS by serial fold dilutions in the 96-well tissue culture plates (Becton Dickinson, Franklin Lakes, NJ) at 50 µl final volumes. […] Freshly grown THP-1 cells and HEK-TLR2/6 transfected cells as well as murine macrophages, each adjusted to 10^6 cell/ml and 250 µl aliquots were dispensed into each well at final 250×10^3 cell density in the designated 96-well plates. The plates were incubated overnight at 37°C with 5% CO2 and humidity. […]
(§1) The cytokines TNFα, IL-6 and CXCL10 (IP-10), released from THP-1 cells, and IL-8, released from HEK-TLR2 transfected cells stimulated with meningococcal CPS polymers, were quantified by DuoSet ELISA (R&D Systems) as previously described.

[2] = test system: TLR4-sufficient and TLR4-deficient murine macrophages; experiment: CXCL10 (IP-10) release from murine macrophages induced with meningococcal CPS; assay type: cell-based
Method: Human THP-1 (macrophage-like cells) and murine RAW 264.7 (TLR4-sufficient), 23ScCr (TLR4-deficient) and HEK-TLR2/6/CD14 stably transfected cell lines were stimulated with meningococcal CPS polymers with or without pre-incubation with LL-37 and its analogs (Table 1). CPS polymers were purified from the LPS-deficient serogroup B Neisseria meningitidis lpxA mutant as well as other meningococcal serogroups A, B, C, W135 and Y. Purified CPS samples were freshly dissolved in pyrogen-free sterile H2O at 1 mg/ml stock concentration and vortexed for 2 min. Working CPS concentrations (ranging from 100 µg/ml to 50 ng/ml) were made in duplicate wells using sterile PBS by serial fold dilutions in the 96-well tissue culture plates (Becton Dickinson, Franklin Lakes, NJ) at 50 µl final volumes. Cationic peptides (2, 4 or 8 µg/ml) or PBS equivalent volumes were added to designated wells and pre-incubated for 30 min at 37°C. Freshly grown THP-1 cells and HEK-TLR2/6 transfected cells as well as murine macrophages, each adjusted to 10^6 cell/ml and 250 µl aliquots were dispensed into each well at final 250×10^3 cell density in the designated 96-well plates. […]
as §1

[3] = test system: N. gonorrhoeae strain FA 19; settings: N. gonorrhoeae FA19 (non-encapsulated); assays in triplicate
Method: The peptides were dissolved in 0.01 % (v/v) acetic acid and stored at −20°C prior to use. Antibacterial assays were performed as described previously and used N. gonorrhoeae strain FA 19. All assays were performed in triplicate and values are reported as the minimal inhibitory concentration (MIC).

[4] = test system: THP-1 cells; experiment: TNFα release from THP-1 cells induced with meningococcal CPS pre-incubated with peptide (ELISA); assay type: cell-based, human; settings: THP-1 cells induced overnight with serogroup B CPS-lpxA pre-incubated with 2 µg/ml peptide, 30 min, 37°C; Figure 1A
Method: Human THP-1 (macrophage-like cells) and murine RAW 264.7 (TLR4-sufficient), 23ScCr (TLR4-deficient) and HEK-TLR2/6/CD14 stably transfected cell lines were stimulated with meningococcal CPS polymers with or without pre-incubation with LL-37 and its analogs (Table 1). CPS polymers were purified from the LPS-deficient serogroup B Neisseria meningitidis lpxA mutant as well as other meningococcal serogroups A, B, C, W135 and Y. Purified CPS samples were freshly dissolved in pyrogen-free sterile H2O at 1 mg/ml stock concentration and vortexed for 2 min. Working CPS concentrations (ranging from 100 µg/ml to 50 ng/ml) were made in duplicate wells using sterile PBS by serial fold dilutions in the 96-well tissue culture plates (Becton Dickinson, Franklin Lakes, NJ) at 50 µl final volumes. […] Freshly grown THP-1 cells and HEK-TLR2/6 transfected cells as well as murine macrophages, each adjusted to 10^6 cell/ml and 250 µl aliquots were dispensed into each well at final 250×10^3 cell density in the designated 96-well plates. The plates were incubated overnight at 37°C with 5% CO2 and humidity. Supernatants from stimulated cells were harvested and stored at −20°C until use.
as §1

[5] = test system: RAW 264.7 macrophages; experiment: Nitric oxide release from RAW 264.7 macrophages induced with meningococcal CPS (Griess method); assay type: cell-based, murine
Method: (§2) Human THP-1 (macrophage-like cells) and murine RAW 264.7 (TLR4-sufficient), 23ScCr (TLR4-deficient) and HEK-TLR2/6/CD14 stably transfected cell lines were stimulated with meningococcal CPS polymers with or without pre-incubation with LL-37 and its analogs (Table 1). CPS polymers were purified from the LPS-deficient serogroup B Neisseria meningitidis lpxA mutant as well as other meningococcal serogroups A, B, C, W135 and Y. Purified CPS samples were freshly dissolved in pyrogen-free sterile H2O at 1 mg/ml stock concentration and vortexed for 2 min. Working CPS concentrations (ranging from 100 µg/ml to 50 ng/ml) were made in duplicate wells using sterile PBS by serial fold dilutions in the 96-well tissue culture plates (Becton Dickinson, Franklin Lakes, NJ) at 50 µl final volumes. Cationic peptides (2, 4 or 8 µg/ml) or PBS equivalent volumes were added to designated wells and pre-incubated for 30 min at 37°C. Freshly grown THP-1 cells and HEK-TLR2/6 transfected cells as well as murine macrophages, each adjusted to 10^6 cell/ml and 250 µl aliquots were dispensed into each well at final 250×10^3 cell density in the designated 96-well plates. The plates were incubated overnight at 37°C with 5% CO2 and humidity. Supernatants from stimulated cells were harvested and stored at −20°C until use.
Freshly grown adherent RAW 246.7 or 23ScCr (TLR4-deficient) macrophages were harvested, washed and re-suspended in Dulbecco's complete media, counted and adjusted to 10^6 cell/ml. 250 µl aliquots were then dispensed into each well of a 96-well plate at final 250×10^3 cell density prior to stimulation with purified CPS polymers with or without cationic peptides. The induced RAW 264.7 or 23ScCr macrophages were incubated overnight at 37°C with 5% CO2 and supernatants were harvested and saved. Nitric oxide release was quantified using the Greiss chemical method as previously described.

[6] = test system: meningococcal CPS-lpxA polymers; experiment: Electrophoretic mobility shift assay (EMSA) of CPS complex with LL-37, CD14 and LBP; assay type: binding, Neisseria meningitidis; settings: 5 µg LL-37, 0.5 µg rCD14, 0.5 µg rLBP, 3 h 37°C; 8% native PAGE, Western blot; Figure 8 lane 5
Method: To assess binding of CPS to LL-37 in the presence of human CD14 and LBP, an EMSA assay using native gel conditions was performed. Serogroup B CPS purified from a LOS-deficient meningococcal lpxA strain were dissolved in sterile H2O at 1 mg/ml concentration and 20 µl were transferred into an Eppendorf tube mixed with 10 µl (5 µg) of LL-37, 10 µl (0.5 µg) of human rCD14 and 10 µl (0.5 µg) of rLBP (R&D Systems) in […] and incubated for 3 h at 37°C. An aliquot of 7.5 µl of the mixed complexes were transferred into a new Eppendorf tube and mixed with an equal volume of sample buffer (0.1 M Tris-glycine buffer containing 20% glycerol and bromophenol blue) and 15 µl of the mixture were loaded on 8% native polyacrylamide gel electrophoresis (PAGE) without SDS as previously described. Electrophoresis was performed with Tris-glycine buffer pH 8.8 without SDS and run for 2 h at 4°C. The gel-shifting of CPS complexes was detected by Western blot method using biotinylated anti CD14 and anti LBP antibodies (R&D Systems) diluted 1∶1500× with blocking buffer.

[7] = test system: HEK-TLR2/6 stably transfected cells; experiment: IL-8 release from HEK-TLR2/6 stably transfected cells induced with meningococcal CPS pre-incubated with peptide (ELISA); assay type: cell-based, human
Method: as §2, §1

[8] = test system: TLR2; experiment: Neutralization of the TLR2-mediated response induced by phospholipid extract PL-lpxA; assay type: cell-based; settings: phospholipid extraction from LOS-deficient meningococci

Compound: CC[C@H](C)[C@H](NC(=O)[C@H](CCCCN)NC(=O)[C@H](CCC(=O)O)NC(=O)[C@H](CCCCN)NC(=O)[C@H](CO)NC(=O)[C@H](CCCCN)NC(=O)[C@H](CCCNC(=N)N)NC(=O)[C@H](Cc1ccccc1)NC(=O)[C@H](Cc1ccccc1)NC(=O)[C@H](CC(=O)O)NC(=O)CNC(=O)[C@H](CC(C)C)NC(=O)[C@@H](N)CC(C)C)C(=O)NCC(=O)N[C@@H](CCCCN)C(=O)N[C@@H](CCC(=O)O)C(=O)N[C@@H](Cc1ccccc1)C(=O)N[C@@H](CCCCN)C(=O)N[C@@H](CCCNC(=N)N)C(=O)N[C@H](C(=O)N[C@H](C(=O)N[C@@H](CCC(N)=O)C(=O)N[C@@H](CCCNC(=N)N)C(=O)N[C@H](C(=O)N[C@@H](CCCCN)C(=O)N[C@@H](CC(=O)O)C(=O)N[C@@H](Cc1ccccc1)C(=O)N[C@@H](CC(C)C)C(=O)N[C@@H](CCCNC(=N)N)C(=O)N[C@@H](CC(N)=O)C(=O)N[C@@H](CC(C)C)C(=O)N[C@H](C(=O)N1CCC[C@H]1C(=O)N[C@@H](CCCNC(=N)N)C(=O)N[C@H](C(=O)N[C@@H](CCC(=O)O)C(=O)N[C@@H](CO)C(=O)O)[C@@H](C)O)C(C)C)[C@@H](C)CC)C(C)C)[C@@H](C)CC [LL-37]
- IL-6 release [1]: inhibited
- CXCL10 (IP-10) release [2]: inhibited
- MIC [3]: 7.8 µg/mL (≈ 1.74 µM)
- TNFα release [4]: inhibited
- Nitric oxide release by CPS-lpxA complexes used in gel-shift ([5]; RAW 264 macrophages, complexes with CD14, LBP and LL-37, data not shown): significant reduction in nitric oxide release
- Cytokine release after pre-treatment of macrophages ([5]; RAW 264 pre-treated with 10 µg/ml LL-37 for 30 min, washed, then CPS-lpxA 50 µg/ml, nitric oxide read-out, Figure S2): did not affect cytokine release
- Nitric oxide release ([5]; RAW 264.7 induced with CPS-lpxA pre-incubated with 2 µg/ml peptide, nitrite after 24 h, Figure 1D): inhibited
- Gel-shift of CPS-lpxA-CD14-LBP complexes [6]: caused a gel-shift
- IL-8 release ([7]; HEK-TLR2/6 cells induced with CPS-lpxA pre-incubated with 2 µg/ml peptide, Figure 1C): inhibited
- Neutralization of CPS-induced IL-8 release ([7]; HEK-TLR2/6 cells, serogroup A CPS pre-incubated with 4 µg/ml peptide, Figure 2A): neutralized
- IL-8 release ([7]; HEK/TLR2/6 cells stimulated with different meningococcal CPS structures pre-incubated with LL-37): significant reduction in IL-8 release
- IL-8 release induced by MAPS ([7]; HEK/TLR2/6 cells, vaccine grade serogroup A CPS (MAPS) pre-incubated with 2 µg/ml of LL-37, Figure 2B): significantly reduced
- Neutralization of biologic activity of PL-lpxA [8]: failed to neutralize
